Assay results published in ChEMBL document CHEMBL3507680, “University of Dundee, Gates Library screen for HepG2 cell viability”.

Assay: Human HepG2 cell viability assay in 384 well format
Assay type: toxicity, cell-based
Design: dose 125 nL, time 70.5 hour; concentration not given beside the values
Settings: HepG2 cells, read-out: Inhibition

Compound	cytotoxicity at 70.5 h [%]
Cn1ccnc1CN(Cc1ccccn1)Cc1ccccc1Cl	1.27
COc1ccc(CN2C[C@@H]3CN(C(=O)[C@H]4CCCO4)C[C@@H]3C2=O)cc1	-4.12
COc1ccccc1CCN(C)Cc1nc(N)nc(N(C)C)n1	-11.2
Cn1ncc(NCc2cccc(F)c2)c(Cl)c1=O	-13.3
Cc1nc2ccc(S(=O)(=O)Nc3c(C)nn(CC(=O)O)c3C)cc2s1	-10.8
O=C(NC1CCS(=O)(=O)c2ccccc21)c1sccc1C1CC1 (centres undefined)	-7.25
CN(C)c1ncccc1CNc1snc(Cl)c1C#N	-77.9
CN1C(=O)C(c2ccccc2)CC12CCN(CCO)CC2 (centres undefined)	-14.6
CCOc1ncccc1NC(=O)N1CCCCCC1	-13.8
CC(C(=O)Nc1ccc(N2CCCC2)nc1)n1cccn1 (centres undefined)	-0.411
COCCc1noc(CN(C)C2CCCN(c3ccc(C)nn3)C2)n1 (centres undefined)	24.4
Cc1cccc(C(C(=O)N2CC(c3ccncc3)C2)N(C)C)c1 (centres undefined)	12.4
Clc1ccc(-c2c[nH]c([C@@H]3COCCN3)n2)cc1	-0.826
CCc1noc(C(C)N2CCN(c3ccc(C#N)cn3)CC2)n1 (centres undefined)	-2.7
Cc1cccc(CN2CCc3onc(CN(C)C)c3C2)n1	0.439
COc1cc(C(C)=O)ccc1OCC(=O)N(CC(C)C#N)C1CC1 (centres undefined)	-7.18
O=C([C@H]1CC[C@@H]2[C@@H](CCN2Cc2ccc(F)cc2)O1)N1CCCO1	-9.2
COCCCS(=O)(=O)N1CCN(C(C)(C)CO)CC1	-7.76
CS(=O)(=O)NC1(CCc2ccc(NC(=O)C3CC3)nc2)CCCCC1	15
CCn1c(N)nc2cc(C(=O)N3CCN(c4ccncc4)CC3)cnc21	-2.2
COCCn1cc(C(=O)N2CCCC2c2cccs2)c2ccccc21 (centres undefined)	7.25
COc1ccc(C(=O)Nc2ccc3ncn(C(C)C)c(=O)c3c2)cc1	-3.51
CN(Cc1ccncc1)C1CC2(CCN(C(=O)c3ccnnc3)CC2)C1	-9.02

Compound	cytotoxicity at 70.5 h [%]
Cc1noc(CCNC(=O)NCC(=O)NCc2ccccc2)n1	-4.83
CC(C)n1cnc2ccc(NC(=O)CCCn3cccn3)cc2c1=O	21.7
Cc1cccc(C2(NC(=O)CCCn3cncn3)CCCC2)c1	-5.53
COc1ccccc1C(=O)Nc1c(F)c(C(=O)NC2CCCC2)nn1C	-7.93
Cc1cnc(C(=O)N2C[C@H]3CN(Cc4cccnc4)C[C@H]3C2)cn1	6.07
CCC1=N[C@@]2(CC[C@@H]3CN(Cc4ccc(C)cc4)C[C@@H]32)C(=O)N1C	-2.71
NS(=O)(=O)CCN1CCN(c2cc(F)ccc2F)CC1	10.3
CN1C(=O)CC(c2ccccc2)C12CCN(CC1CCOCC1)CC2 (centres undefined)	-6.6
Cn1ccnc1CN1CCCC(CCc2ccc(F)c(F)c2)C1 (centres undefined)	-1.61
COC(=O)NCc1cc2n(n1)CCCN(C(C)=O)C2	-7.46
Cc1cc(C)c2nc(CN3CC[C@@H](O)C3)cc(O)c2c1	-4.35
COc1cccc(S(=O)(=O)NC(=O)COC2CCCC2)c1	-3.13
COc1ccc(CN(C)CC(O)COCc2ccccc2Cl)c(OC)c1 (centres undefined)	16.2
CC(=O)N1CCCC(c2ccc(Nc3nc(C)cc(C)n3)cn2)C1 (centres undefined)	-12
Cc1noc(C)c1-c1cncc(C2CCCN2Cc2ncccc2F)n1 (centres undefined)	-6.52
O=C1NC2(CCc3ccccc31)CCN(Cc1cccnc1)C2 (centres undefined)	3.7
c1ccc(CN2CCc3ncnc(-c4ccoc4)c3CC2)nc1	-5.45
CS(=O)(=O)Nc1cccc(C(=O)Nc2ccc3c(c2)C(=O)NC3)c1	-6.35
Cc1cc(C(=O)N2CCCC3(CNC(=O)O3)C2)c2c(C)nn(C)c2n1 (centres undefined)	-5.33
COc1ccc(-c2n[nH]c(C)c2CC(=O)NCC2CCCO2)cc1 (centres undefined)	20.6
OC1(CN2CCCC2)CCCN(Cc2ccc(F)cc2Cl)C1 (centres undefined)	-7.3
Cc1noc(OCc2ccc(C#N)cc2)n1	-0.0296
COc1cc(NC2CCS(=O)(=O)CC2)ncn1	-16.4

Compound	cytotoxicity at 70.5 h [%]
COCc1ncn2c1CN(S(=O)(=O)c1cccc(OC)c1)CC2	8.77
CN1CCN(c2ccc(Cl)cc2NC(=O)c2ccco2)CC1	12.6
C[C@H]1CN2C[C@H](O)CC2CN1Cc1ccc2nccnc2c1 (some centres undefined)	-1.32
CCc1ccc(C(COC)NC(=O)c2ccc(O)nc2)o1 (centres undefined)	-6.34
CC[C@@H](Cn1ncc2ccccc2c1=O)NC(=O)c1cnc(C)cn1	-6.57
CC1(c2nccs2)CCN(C(=O)CCN2CCOCC2)CC1	-1.94
O=C1Nc2ccccc2C1C1CCN(C(=O)C2CC2)CC1 (centres undefined)	-6.49
Cc1ccc(CN(C)C(=O)CN2CCCC2Cn2cncn2)cc1 (centres undefined)	-3.7
CC[C@H]1COCCN1C(=O)c1cnc(-c2ccccc2)nc1C	-5.37
Cc1nc2sccn2c1C(=O)N1CCn2nc(C(=O)NC3CC3)cc2C1	-11.6
O=C(Cn1cc(-n2cccc2)cn1)NCC1CCC1	-10.7
Cc1ccc(C(=O)N2CCc3ncccc3C2)cc1N1CCNC1=O	0.999
Cn1cnc2c1C(COCC1CCOCC1)CN(c1ncccn1)C2 (centres undefined)	-11.3
O=C(c1cscn1)N1CCC2(CN(Cc3ccncc3)C2)C1	-9.93
CN1CCN(c2ccccc2CNC(=O)Cc2cccc(F)c2)CC1	9.04
CCc1nnc(CN2CCc3ccc(S(N)(=O)=O)cc32)o1	-0.999
Cc1nsc(C(=O)NCCc2ccc(F)cc2)n1	-1.44
Cc1cnc(N2C[C@@H]3CCN(CC4CC4)C(=O)[C@H]3C2)nc1	-4.98
Cc1nn(C)c(N(C)C)c1CNCc1ccc(Cn2cncn2)cc1	22.4
CCNC(=O)[C@@H]1C[C@@H](NC(=O)c2ccc(C#N)cc2)CN1CCCSC	17.5
Cn1cnc2c1C(COCc1ccccc1)N(Cc1cccnc1)CC2 (centres undefined)	-0.0183
Cc1ccc2c(c1)OC(C)CN2C(=O)CCc1cccnc1 (centres undefined)	1.51
COCCNC(=O)CCN1C(=O)CC2(CCCC2)C1=O	-15.7

Compound	cytotoxicity at 70.5 h [%]
Cc1cnn(CC2CCCN2CC(=O)Nc2cc(C)on2)c1 (centres undefined)	0.558
CC(C)N(C)Cc1nnc2n1CCCN(C(=O)c1ccco1)C2	-6.16
COCCc1noc(CN2CCCC2Cn2cc(C)cn2)n1 (centres undefined)	18.1
c1ccc(CNC[C@H]2Cn3ccnc3CO2)cc1	4.33
CCNC(=O)NCc1ccnc(N(C)C)n1	-5.28
CCNc1ccnc(-c2ccnc3c2ccn3C)n1	-2.33
COc1ccc(N2CCCC3(C2)CN(c2ncccn2)CCO3)cc1 (centres undefined)	-2.45
Cc1csc(N2CCN(CCc3ccccn3)CC2C)n1 (centres undefined)	-10.7
CC(C)(C)OC(=O)N1CCN(C(=O)c2cnn3c2OCCC3)CC1	-0.601
O=C(CC(F)(F)F)NC(c1ccc(Cl)cc1)c1ncon1 (centres undefined)	-3.08
CCCC(C)Sc1nnnn1C1CCOCC1 (centres undefined)	-12.8
Cc1ccc(C(=O)NCC2COCCO2)c(=O)[nH]1 (centres undefined)	-17
CCC(NC1CCCC1)c1ccc(S(C)(=O)=O)cc1 (centres undefined)	-12.8
O=C(c1ccco1)N1C[C@H]2CCCN(Cc3ccoc3)[C@H]2C1	-9.66
c1ccc(CNc2cc(C3CCCNC3)ccn2)nc1 (centres undefined)	20.2
CCc1n[nH]c(C2CN(C(=O)c3cscn3)CCO2)n1 (centres undefined)	43
COC(=O)c1cc(CN2CCN(c3ncccc3C)CC2)ccc1O	39.9
CCC(C)CS(=O)(=O)NC(=O)C1CCC1 (centres undefined)	21.3
Cc1noc(C(C)C)c1C(=O)NCCC(=O)N1CCCCC1	-19
CN(C)C(=O)N1CCN(C(=O)c2cccc(Cl)c2)CC2(CNC(=O)C2)C1 (centres undefined)	-4.76
Cc1cc(-c2nccs2)nc(C2CCN(Cc3ccc(F)cc3)CC2)n1	-2
COCC(C)NC(=O)c1nnn(-c2ccc(Br)cc2)n1 (centres undefined)	10.9
Fc1ccccc1CN1C[C@@H]2CN(Cc3cccnc3)CCO[C@@H]2C1	-11.8

Compound	cytotoxicity at 70.5 h [%]
CCn1ccnc1CN1C[C@@H](NC(=O)C2CC2)[C@H](c2ccc(C)cc2)C1	23.8
C=C(C)COc1cccc(CN(C)C(C)c2nccs2)c1 (centres undefined)	-4
Cn1cc(CN2CCc3ncnc(N4CCCC4)c3CC2)cn1	-0.713
CNC(=O)c1ccnc(N2CCCC(COc3cccc(C)c3)C2)c1 (centres undefined)	-20.4
NC(=O)c1cc(CC2CCCN(Cc3cnccn3)CC2)ncn1 (centres undefined)	-2.22
CN(Cc1ccsc1)C(=O)COC(=O)c1cc(Cl)c[nH]1	-2.89
COCc1noc(Cn2ccc3ncccc3c2=O)n1	-7.25
CNc1cc(C(=O)N2CCOC(C(=O)NC3CCCC3)C2)ccn1 (centres undefined)	-2.84
Cc1noc(CCNS(=O)(=O)N2CCCC2c2ccc(C)o2)n1 (centres undefined)	9.73
COCCN(Cc1ccccn1)C(=O)Nc1cccnc1N1CCCC1	-12.3
Cc1nn(CCO)c(C)c1CN1CCN(C2CCCCC2)C(=O)C1	0.129
CCNc1nnc(SC(C(=O)NCc2cccnc2)C(C)C)s1 (centres undefined)	-14.3
CCOCCN(C)C(=O)Nc1cccc2c1CCN(CC)C2	10.2
Cc1nc(NC2CCCC2)cc(C2CCN2C(=O)c2ccccc2)n1 (centres undefined)	14.2
CCOc1ccc(CCC(=O)N2CC[C@H]3C(=O)NCCO[C@H]3C2)cc1	-10.6
Cc1c[nH]c(CN(C)C(=O)c2cccc(CCC(C)(C)O)c2)n1	-5.47
CC(C)N(CC1CCCN(Cc2ccon2)C1)C(=O)OC(C)(C)C (centres undefined)	-2.83
COCCn1cc2c(n1)C(CNCc1ccsc1)OCC2 (centres undefined)	-14.8
CC(C)NC(=O)N1C[C@@H](F)[C@@H](OCc2nc3ccccc3o2)C1	-0.085
O=C(NC[C@H]1C[C@@H]2CCN1C[C@@H]2CN1CCCCC1)Nc1ccsc1	-16
CN1C(=O)CC(c2cnn(C)c2)C12CCN(C(=O)c1ccco1)CC2 (centres undefined)	-6.73
Cc1cc(CCC(=O)O)nc(C2CCCN2c2ccnc(C)n2)n1 (centres undefined)	-6.16
